The assay deals with eNOS promoter. The assay can be described thus: Activation of eNOS transcription (eNOS promoter firefly luciferase reporter gene assay). The note with it: human endothelial cell line stable transfected with eNOS promoter-luciferase construct; 18 h incubation; EC50 determined graphically; read-out: EC50 values of transcription induction ratios (TIR). The format is cell-based. As to the method: Activation of eNOS transcription was measured as described in detail by L^1 et al., “Activation of protein kinase C alpha and/or epsilon enhances transcription of the human endothelial nitric oxide synthase gene”, Mol. Pharmacol. 53 (1998) 630. Briefly, a 3.5 kB long fragment 5′ of the starting codon of the eNOS gene was cloned, sequenced and cloned in firefly luciferase expression plasmids to monitor activation of the eNOS promoter by reporter gene activity. A human endothelial cell line stable transfected and expressing this promoter-reporter construct was used for compound testing. Cells were incubated for 18 h with the compounds.
All compounds were dissolved in sterile dimethyl sulfoxide (DMSO). A final concentration of 0.5% DMSO in complete medium was allowed. Induction of reporter gene expression in these cells was measured using a standard luciferase assay system (Promega, Cat. No. E150) according to the manufacturer's instructions. Luciferase induction in cells incubated with compounds were compared to those incubated with solvent alone. The ratio of both activities (transcription induction ratio, TIR) was plotted as a function of compound concentration. Typically, TIR values started at low concentrations at a ratio of 1, indicating no compound effect, and extended up to a maximum TIR value TIR(max) which indicates the increase of the eNOS transcription. EC50 values of transcription induction ratios as a function of compound concentration were determined graphically.

Each structure is given as a SMILES string. Structures can show the parent of a compound that is named as a salt.

`C/C(=C\C(=O)N(C)C)c1ccc(-c2ccccc2F)nc1` [Example 110, 3-[6-(2-Fluoro-phenyl)-pyridin-3-yl]-but-2-enoic Acid Dimethylamide Trifluoroacetic Acid Salt]: the EC50 is less than 500 nM. Under `C/C(=C\C(=O)N1CCCCC1)c1cc(-c2ccccc2F)cs1` [Example 123, 3-[4-(2-Fluoro-phenyl)-thiophen-2-yl]-1-(piperidin-1-yl)-but-2-en-1-one] stands 500 to 5000 nM; under `O=C(/C=C/c1ccc(-c2ccccc2OC(F)(F)F)o1)N1CCCCC1` [Example 13, 1-(Piperidin-1-yl)-3-[5-(2-trifluoromethoxy-phenyl)-furan-2-yl]-propenone], 500 to 5000 nM; under `O=C(/C=C/c1cc(-c2ccccc2F)cs1)N1CCCCC1` [Example 15, 3-[4-(2-Fluoro-phenyl)-thiophen-2-yl]-1-(piperidin-1-yl)-propenone], less than 500 nM.

On to `O=C(/C=C/c1ccc(Oc2ccc(F)cc2)nc1)N1CCCCC1` [Example 76, 3-[6-(4-Fluoro-phenoxy)-pyridin-3-yl]-1-(piperidin-1-yl)-propenone Trifluoroacetic Acid Salt], for which the EC50 fell in the range of 500 to 5000 nM. The same measure for `CC(C)N(C(=O)/C=C/c1nc(-c2ccc(F)cc2)cs1)C(C)C` [Example 145, 3-[4-(4-Fluoro-phenyl)-thiazol-2-yl]-N,N-diisopropyl-acrylamide]: less than 500 nM; for `O=C(/C=C/c1ccc(-c2cc3ccccc3s2)nc1)N1CCCCC1` [Example 125, 3-(6-(Benzo[b]thiophen-2-yl)-pyridin-3-yl)-1-(piperidin-1-yl)-propenone]: 500 to 5000 nM; for `CC(C)(C)NC(=O)/C=C/c1nc(-c2ccc(F)cc2)cs1` [Example 146, N-tert-Butyl-3-[4-(4-fluoro-phenyl)-thiazol-2-yl]-acrylamide]: less than 500 nM. The same measure for `O=C(/C=C/c1ccc(-c2ccccc2F)s1)Nc1ccccc1` [Example 150, 3-[5-(2-Fluoro-phenyl)-thiophen-2-yl]-N-phenyl-acrylamide]: 500 to 5000 nM; for `O=C(/C=C/c1cnc2ccccc2c1)N1CCCCC1` [Example 1, 1-(Piperidin-1-yl)-3-(quinolin-3-yl)-propenone]: 500 to 5000 nM. Under `O=C(/C=C/c1nc(-c2ccc(F)cc2)cs1)Nc1ccccn1` [Example 116, 3-[4-(4-Fluoro-phenyl)-thiazol-2-yl]-N-(pyridin-2-yl)-acrylamide] stands 500 to 5000 nM.

The values are drawn from patent publication US8304438B2, “Heteroarylacrylamides and their use as pharmaceuticals” (Sanofi, priority 2006, dated 2012).
